Key:
[1] = biological target: Alpha-galactosidase (Coffea arabica) (UniProt Q5DUH8); conditions: 1000 uM
[2] = biological target: T1, Beta-galactosidase (Rattus norvegicus) (UniProt D3ZUM4); experiment: Percent inhibition of beta galactosidase of rat epididymis at 1000 uM
T1 sequence (whole entry): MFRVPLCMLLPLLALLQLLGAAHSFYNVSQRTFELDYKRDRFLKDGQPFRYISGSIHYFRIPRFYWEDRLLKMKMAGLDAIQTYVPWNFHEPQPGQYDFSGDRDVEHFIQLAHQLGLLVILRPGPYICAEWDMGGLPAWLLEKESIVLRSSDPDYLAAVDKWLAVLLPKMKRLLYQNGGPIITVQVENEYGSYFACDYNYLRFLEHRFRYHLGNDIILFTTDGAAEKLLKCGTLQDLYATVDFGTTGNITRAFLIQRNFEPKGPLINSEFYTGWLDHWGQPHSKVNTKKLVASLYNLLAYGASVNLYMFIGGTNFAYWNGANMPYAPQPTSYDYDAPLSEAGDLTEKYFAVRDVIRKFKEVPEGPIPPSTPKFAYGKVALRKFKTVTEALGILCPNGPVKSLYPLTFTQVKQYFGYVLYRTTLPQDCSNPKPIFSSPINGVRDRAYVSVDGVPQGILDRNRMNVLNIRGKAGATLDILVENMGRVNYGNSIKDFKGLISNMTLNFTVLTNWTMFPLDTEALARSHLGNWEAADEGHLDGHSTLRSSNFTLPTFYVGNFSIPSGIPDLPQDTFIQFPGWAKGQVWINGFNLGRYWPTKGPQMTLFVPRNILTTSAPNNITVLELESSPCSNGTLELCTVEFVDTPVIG

[3] = biological target: T2, Alpha-galactosidase A (Homo sapiens) (UniProt P06280); conditions: 1000 uM
T2 sequence (whole entry): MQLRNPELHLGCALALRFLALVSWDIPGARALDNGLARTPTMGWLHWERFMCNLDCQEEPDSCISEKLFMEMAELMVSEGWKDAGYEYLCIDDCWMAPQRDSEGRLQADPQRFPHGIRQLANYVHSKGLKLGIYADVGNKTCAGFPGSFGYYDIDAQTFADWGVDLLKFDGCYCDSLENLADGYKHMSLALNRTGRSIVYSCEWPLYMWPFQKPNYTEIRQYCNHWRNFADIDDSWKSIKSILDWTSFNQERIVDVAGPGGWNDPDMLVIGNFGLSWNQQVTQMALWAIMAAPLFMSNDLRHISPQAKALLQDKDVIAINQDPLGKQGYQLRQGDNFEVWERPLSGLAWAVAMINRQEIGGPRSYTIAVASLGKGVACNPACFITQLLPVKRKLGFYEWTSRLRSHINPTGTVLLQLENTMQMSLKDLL

[4] = biological target: T3, Tissue alpha-L-fucosidase (Homo sapiens) (UniProt P04066); conditions: 1000 uM
T3 sequence (whole entry): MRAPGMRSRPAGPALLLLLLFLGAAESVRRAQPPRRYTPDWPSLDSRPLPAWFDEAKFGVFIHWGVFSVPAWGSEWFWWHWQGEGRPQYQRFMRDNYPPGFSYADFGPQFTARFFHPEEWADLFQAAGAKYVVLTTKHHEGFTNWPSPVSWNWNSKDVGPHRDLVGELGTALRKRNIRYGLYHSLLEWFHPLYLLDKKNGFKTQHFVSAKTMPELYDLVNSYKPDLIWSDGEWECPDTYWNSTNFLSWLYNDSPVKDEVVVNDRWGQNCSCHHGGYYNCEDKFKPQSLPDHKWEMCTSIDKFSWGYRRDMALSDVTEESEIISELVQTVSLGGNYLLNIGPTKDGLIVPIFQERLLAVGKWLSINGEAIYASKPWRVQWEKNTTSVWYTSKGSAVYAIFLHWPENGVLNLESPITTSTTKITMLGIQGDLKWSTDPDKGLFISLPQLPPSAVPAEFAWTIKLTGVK

[5] = biological target: T4, Cytosolic beta-glucosidase (Homo sapiens, UniProt Q9H227); experiment: Inhibitory concentration against beta-glucosidase
T4 sequence (Q9H227 whole entry): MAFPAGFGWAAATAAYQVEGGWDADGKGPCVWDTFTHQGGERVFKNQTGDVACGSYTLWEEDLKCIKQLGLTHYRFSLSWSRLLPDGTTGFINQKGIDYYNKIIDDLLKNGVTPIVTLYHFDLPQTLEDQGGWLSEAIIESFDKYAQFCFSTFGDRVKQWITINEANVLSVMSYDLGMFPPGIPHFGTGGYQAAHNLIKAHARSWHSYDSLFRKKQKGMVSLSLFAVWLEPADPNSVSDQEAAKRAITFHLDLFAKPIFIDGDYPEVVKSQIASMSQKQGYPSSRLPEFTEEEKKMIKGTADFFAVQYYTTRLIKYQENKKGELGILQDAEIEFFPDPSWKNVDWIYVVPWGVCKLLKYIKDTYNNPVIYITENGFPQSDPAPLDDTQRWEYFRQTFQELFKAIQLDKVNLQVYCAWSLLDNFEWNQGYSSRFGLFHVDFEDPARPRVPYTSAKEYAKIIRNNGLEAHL

[6] = biological target: T5, Tissue alpha-L-fucosidase (Bos taurus, UniProt Q2KIM0); experiment: Inhibitory concentration against alpha-L-fucosidase of bovine epididymis
T5 sequence (Q2KIM0 whole entry): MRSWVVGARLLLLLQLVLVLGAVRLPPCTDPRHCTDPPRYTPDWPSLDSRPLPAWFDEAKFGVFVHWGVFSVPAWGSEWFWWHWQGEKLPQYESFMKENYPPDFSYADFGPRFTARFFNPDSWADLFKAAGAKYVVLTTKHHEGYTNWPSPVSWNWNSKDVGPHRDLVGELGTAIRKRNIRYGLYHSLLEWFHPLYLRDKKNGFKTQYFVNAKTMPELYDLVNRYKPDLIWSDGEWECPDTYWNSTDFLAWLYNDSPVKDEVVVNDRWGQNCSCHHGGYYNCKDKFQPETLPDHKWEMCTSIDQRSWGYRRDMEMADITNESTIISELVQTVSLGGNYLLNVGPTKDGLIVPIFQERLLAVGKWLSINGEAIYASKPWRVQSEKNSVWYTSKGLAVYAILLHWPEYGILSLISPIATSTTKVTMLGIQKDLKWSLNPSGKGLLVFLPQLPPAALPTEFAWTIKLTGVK

[7] = biological target: T5, Tissue alpha-L-fucosidase; experiment: Ki value against bovine alpha-L-fucosidase
[8] = biological target: T4, Cytosolic beta-glucosidase; experiment: Inhibitory concentration against human beta-glucosidase

Alpha-galactosidase (Coffea arabica), sequence (Q5DUH8 as listed by the source): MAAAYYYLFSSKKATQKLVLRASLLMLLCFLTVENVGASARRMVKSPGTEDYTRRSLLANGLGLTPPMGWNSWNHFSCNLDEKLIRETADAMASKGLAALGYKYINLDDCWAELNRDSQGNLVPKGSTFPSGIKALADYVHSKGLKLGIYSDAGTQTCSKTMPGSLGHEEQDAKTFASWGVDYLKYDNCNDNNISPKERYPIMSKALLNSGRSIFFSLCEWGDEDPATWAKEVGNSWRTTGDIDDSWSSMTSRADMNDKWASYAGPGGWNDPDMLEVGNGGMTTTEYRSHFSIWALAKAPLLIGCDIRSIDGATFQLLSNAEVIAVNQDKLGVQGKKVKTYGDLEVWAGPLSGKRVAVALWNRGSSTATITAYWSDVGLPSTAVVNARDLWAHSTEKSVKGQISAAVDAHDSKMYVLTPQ

Structure (SMILES)	inhibition [1] [%]	inhibition [3] [%]	inhibition [4] [%]	also measured
OC[C@@H]1NC[C@@H](O)[C@H](O)[C@H]1O	< 50	< 50	< 50	inhibition [2]: < 50%; IC50 [5]: 980 µM
OC[C@H]1NC[C@H](O)[C@@H](O)[C@H]1O			< 50	
OC[C@@H]1NC[C@H](O)[C@@H](O)[C@@H]1O	< 50	< 50	< 50	
OC[C@@H]1NC[C@H](O)[C@H](O)[C@H]1O	< 50	< 50	< 50	
OC[C@H]1NC[C@H](O)[C@H](O)[C@@H]1O		< 50		
OC[C@H]1NC[C@@H](O)[C@@H](O)[C@@H]1O [DEOXYMANNOJIRIMYCIN]	< 50	< 50		IC50 [6]: 39 µM; Ki [7]: 4.7 µM
OC[C@@H]1NC[C@@H](O)[C@@H](O)[C@@H]1O	< 50	< 50		IC50 [6]: 156 µM; Ki [7]: 14 µM
OC[C@@H]1NC[C@@H](O)[C@@H](O)[C@H]1O		< 50	< 50	
OC[C@H]1NC[C@@H](O)[C@H](O)[C@H]1O			< 50	IC50 [8]: 66 µM; IC50 [5]: 60 µM
OC[C@H]1NC[C@H](O)[C@@H](O)[C@@H]1O [DUVOGLUSTAT]		< 50	< 50	inhibition [2]: < 50%; IC50 [8]: 240 µM; IC50 [5]: 80 µM
OC[C@@H]1NC[C@@H](O)[C@H](O)[C@@H]1O				Ki [7]: 0.08 µM
OC[C@H]1NC[C@H](O)[C@H](O)[C@H]1O			< 50	

— ChEMBL document CHEMBL1142734, “Biological properties of D- and L-1-deoxyazasugars” (J Med Chem, 2005)
